pKi: −log10 of the molar value.
Biological target: T1, human NK1 receptor (Homo sapiens, UniProt P25103)
T1 construct: expressed in transfected cells; host or cells: CHO cells infected using the Semliki virus expression system; membrane suspension
Experiment: NK1 receptor binding assay, [3H]substance P displacement
Conditions: affinity to the NK-1 receptor; human NK1 receptors in CHO cells; [3H]substance P 0.6 nM
Experimental: The affinity of test compounds for the NK1 receptor was evaluated at human NK1 receptors in CHO cells infected with the human NK1 receptor (using the Semliki virus expression system) and radiolabelled with [^3H]substance P (final concentration 0.6 nM). Binding assays were performed in HEPES buffer (50 mM, pH 7.4) containing BSA (0.04%) leupeptin (8 μg/ml), MnCI2 (3 mM) and phosphoramidon (2 μM). Binding assays consisted of 250 μl of membrane suspension (1.25×10^5 cells/assay tube), […] of buffer of displacing agent and 125 μl of [^3H]substance P. Displacement curves were determined with at least seven concentrations of the compound. The assay tubes were incubated for 60 min at room temperature after which time the tube contents were rapidly filtered under vacuum through GF/C filters presoaked for 60 min with PEI (0.3%) with 2×2 ml washes of HEPES buffer (50 mM, pH 7.4). The radioactivity retained on the filters was measured by scintillation counting. All assays were performed in triplicate in at least 2 separate experiments.

T1 sequence (P25103 whole entry): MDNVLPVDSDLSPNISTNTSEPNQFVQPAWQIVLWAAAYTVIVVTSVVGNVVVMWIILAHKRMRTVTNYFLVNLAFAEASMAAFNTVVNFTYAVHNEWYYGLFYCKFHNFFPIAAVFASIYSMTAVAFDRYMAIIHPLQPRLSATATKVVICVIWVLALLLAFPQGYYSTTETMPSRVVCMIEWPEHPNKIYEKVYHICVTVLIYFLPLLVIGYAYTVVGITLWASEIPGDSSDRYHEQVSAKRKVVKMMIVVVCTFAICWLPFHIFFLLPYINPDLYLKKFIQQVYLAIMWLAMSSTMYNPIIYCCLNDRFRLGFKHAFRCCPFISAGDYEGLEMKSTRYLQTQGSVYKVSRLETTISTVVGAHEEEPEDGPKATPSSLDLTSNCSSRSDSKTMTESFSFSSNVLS

SMILES	pKi
CC(=O)Nc1cc(-c2ccccc2C)c(N(C)C(=O)C(C)(C)c2cc(C(F)(F)F)cc(C(F)(F)F)c2)cn1 [Example 10, N-(6-Acetylamino-4-o-tolyl-pyridin-3-yl)-2-(3,5-bis-trifluoromethyl-phenyl)-N-methyl-isobutyramide]	8.60
Cc1ccccc1-c1cc(N2CCC(O)CC2)ncc1C(=O)N(C)Cc1cc(C(F)(F)F)cc(C(F)(F)F)c1 [Example 3, 4-Hydroxy-4′-o-tolyl-3,4,5,6-tetrahydro-2H-[1,2′]bipyridinyl-5′-carboxylic acid (3,5-bis-trifluoromethyl-benzyl)-methyl-amide]	8.91
Cc1ccccc1-c1cc(-n2cncn2)ncc1C(=O)N(C)Cc1cc(C(F)(F)F)cc(C(F)(F)F)c1 [Example 1, N-(3,5-Bis-trifluoromethyl-benzyl)-N-methyl-4-o-tolyl-6-[1,2,4]triazol-1-yl-nicotinamide]	8.40
Cc1ccccc1-c1cc(NCCO)ncc1N(C)C(=O)C(C)(C)c1cc(C(F)(F)F)cc(C(F)(F)F)c1 [Example 7, 2-(3,5-Bis-trifluoromethyl-phenyl)-N-[6-(2-hydroxy-ethylamino)-4-o-toyl-pyridin-3-yl]-N-methyl-isobutyramide]	9.16
Cc1ccccc1-c1cc(N2CC[C@@H](O)C2)ncc1C(=O)N(C)Cc1cc(C(F)(F)F)cc(C(F)(F)F)c1 [Example 5, (R)-N-(3,5-Bis-trifluoromethyl-benzyl)-6-(3-hydroxy-pyrrolidin-1-yl)-N -methyl-4-o-tolyl-nicotinamide]	9.24
Cc1ccccc1-c1cc(N2CCC(OCCO)CC2)ncc1C(=O)N(C)Cc1cc(C(F)(F)F)cc(C(F)(F)F)c1 [Example 4, 4-(2-Hydroxy-ethoxy)-4′-o-tolyl-3,4,5,6-tetrahydro-2H-[1,2′]bipyridinyl-5′-carboxylic acid (3,5-bis-trifluoromethyl-benzyl)-methyl-amide]	9.03
Cc1ccccc1-c1cc(N2C=COCC2)ncc1N(C)C(=O)C(C)(C)c1cc(C(F)(F)F)cc(C(F)(F)F)c1 [Example 9, 2-(3,5-Bis-trifluoromethyl-phenyl)-N-[6-(2,3-dihydro-[1,4]oxazin-4-yl)-4-o-tolyl-pyridin-3-yl]-N-methyl-isobutyramide]	8.83
Cc1ccccc1-c1cc(NCCO)ncc1C(=O)N(C)Cc1cc(C(F)(F)F)cc(C(F)(F)F)c1 [Example 2, N-(3,5-Bis-trifluoromethyl-benzyl)-6-(2-hydroxy-ethylamino)-N-methyl-4-o-tolyl-nicotinamide]	8.87
CN(C(=O)C(C)(C)c1cc(C(F)(F)F)cc(C(F)(F)F)c1)c1cnc(NCCO)cc1-c1ccccc1Cl [Example 8, 2-(3,5-Bis-trifluofomethyl-phenyl)-N-[4-(2-chloro-phenyl)-6-(2-hydroxy-ethylamino)-pyridin-3-yl]-N-methyl-isobutyramide]	9.14
CN(Cc1cc(C(F)(F)F)cc(C(F)(F)F)c1)C(=O)c1cnc(N2CCC(O)CC2)cc1-c1ccccc1Cl [Example 6, 4′-(2-Chloro-phenyl)-4-hydroxy-3,4,5,6-tetrahydro-2H-[1,2′]bipyridinyl-5′-carboxylic acid (3,5-bis-trifluoromethyl-benzyl)-methyl-amide]	9.18

Continued, values first:

pKi	SMILES
8.71	CC(=O)N(C)c1cc(-c2ccccc2C)c(N(C)C(=O)C(C)(C)c2cc(C(F)(F)F)cc(C(F)(F)F)c2)cn1 [Example 11, N-[6-(Acetyl-methyl-amino)-4-o-tolyl-pyridin-3-yl]-2-(3,5-bis-trifluoromethyl-phenyl)-N-methyl-isobutyramide]
8.87	Cc1ccccc1-c1cc(N(C)C(=O)C2CC2)ncc1N(C)C(=O)C(C)(C)c1cc(C(F)(F)F)cc(C(F)(F)F)c1 [Example 13, Cyclopropanecarboxylic acid (5-{[2-(3,5-bis-trifluoromethyl-phenyl)-2-methyl-propionyl]-methyl-amino}-4-o-tolyl-pyridin-2-yl)-methyl-amide]
8.65	Cc1ccccc1-c1cc(-n2ccnc2)ncc1N(C)C(=O)C(C)(C)c1cc(C(F)(F)F)cc(C(F)(F)F)c1 [Example 14, 2-(3,5-Bis-trifluoromethyl-phenyl)-N-(6-imidazol-1-yl-4-o-tolyl-pyridin-3-yl)-N-methyl-isobutyramide]
8.65	Cc1ccccc1-c1cc(NC(=O)C2CC2)ncc1N(C)C(=O)C(C)(C)c1cc(C(F)(F)F)cc(C(F)(F)F)c1 [Example 12, Cyclopropanecarboxylic acid (5-{[2-(3,5-bis-trifluoromethyl-phenyl)-2-methyl-propionyl]-methyl-amino}-4-o-tolyl-pyridin-2-yl)-amide]

Tested on: not given
Experiment: not given
Conditions: not given

melting point	SMILES
150 to 152 °C	Cc1ccccc1-c1cc(N2CCC(O)CC2)ncc1C(=O)N(C)Cc1cc(C(F)(F)F)cc(C(F)(F)F)c1 [Example 3, 4-Hydroxy-4′-o-tolyl-3,4,5,6-tetrahydro-2H-[1,2′]bipyridinyl-5′-carboxylic acid (3,5-bis-trifluoromethyl-benzyl)-methyl-amide]
91 to 93 °C	Cc1ccccc1-c1cc(-n2cncn2)ncc1C(=O)N(C)Cc1cc(C(F)(F)F)cc(C(F)(F)F)c1 [Example 1, N-(3,5-Bis-trifluoromethyl-benzyl)-N-methyl-4-o-tolyl-6-[1,2,4]triazol-1-yl-nicotinamide]

Reference: patent US6624176B2, “Heteroaromatic substituted amides with antagonistic activity to neurokinin 1 receptors” (Hoffmann-La Roche Inc., priority 2001, dated 2003)
